From ChEMBL document CHEMBL4765394, “From irreversible to reversible covalent inhibitors: Harnessing the andrographolide scaffold for anti-inflammatory action” (Eur J Med Chem, 2020) come the findings set out here.

Each structure is given as a SMILES string. Active and inactive are the calls of the source. No cut-off for these calls is given here.

System in one series: not listed separately
Nature of the series: GSH reactivity in PBS assessed as GSH adduct formation measured up to 8 hrs by HPLC-MS analysis. The format is ADME. The following applies: buffer.
On to `C=C1CC[C@@H]2[C@](C)(CO)[C@H](O)CC[C@@]2(C)[C@@H]1C/C=C1\C=COC1=O`, for which the K amounted to 0.003539 M⁻¹ s⁻¹.

System in a further series: not listed separately
Nature of the series: Aqueous stability of compound. Type of series: physicochemical. The following applies: buffer.
Consider `C=C1CC[C@@H]2[C@](C)(CO)[C@H](O)CC[C@@]2(C)[C@@H]1C/C=C1\C(=O)Nc2ccc(F)cc21`, for which the Stabilty entry is “Stable”.
For `C=C1CC[C@@H]2[C@](C)(CO)[C@H](O)CC[C@@]2(C)[C@@H]1C/C=C1/C=COC1=O`, the Stabilty result is “Stable”.
The same measure, in the same setting: for `C=C1CC[C@@H]2[C@](C)(CO)[C@H](O)CC[C@@]2(C)[C@@H]1C/C=C1/CCOC1=O` the value was “Stable”.
On the same count and under the same terms, the same measure for `C=C1CC[C@@H]2[C@](C)(CO)[C@H](O)CC[C@@]2(C)[C@@H]1CC=C(C#N)C#N`: “Unstable”.
Same read-out and setting: the same measure for `C=C1CC[C@@H]2[C@](C)(CO)[C@H](O)CC[C@@]2(C)[C@@H]1C/C=C1/C(=O)Nc2ccc(F)cc21`: “Stable”; for `C=C1CC[C@@H]2[C@](C)(CO)[C@H](O)CC[C@@]2(C)[C@@H]1C/C=C1/C(=O)Nc2ccccc21`: “Stable”; for `C=C1CC[C@@H]2[C@](C)(CO)[C@H](O)CC[C@@]2(C)[C@@H]1/C=C/C1=CCOC1=O`: “Stable”.
For the compound `C=C1CC[C@@H]2[C@](C)(CO)[C@H](O)CC[C@@]2(C)[C@@H]1C/C=C1\C(=O)OC[C@H]1O`, the Stabilty entry is “Stable”.
Same read-out and setting: the same measure for `C=C1CC[C@@H]2[C@](C)(CO)[C@H](O)CC[C@@]2(C)[C@@H]1C/C=C1\NC(=O)NC1=O`: “Stable”; for `C=C1CC[C@@H]2[C@](C)(CO)[C@H](O)CC[C@@]2(C)[C@@H]1C/C=C1\C(=O)Nc2ccccc21`: “Stable”.
Still for that read-out and setting: for `C=C1CC[C@@H]2[C@](C)(CO)[C@H](O)CC[C@@]2(C)[C@@H]1CC=O` the value was “Stable”.
Same read-out and setting: the same measure for `C=C1CC[C@@H]2[C@](C)(CO)[C@H](O)CC[C@@]2(C)[C@@H]1C/C=C1\C=COC1=O`: “Stable”.

System in another series: not listed separately
Description: GSH reactivity assessed as GSH adduct formation by measuring reduction in intracellular GSH level at 20 uM measured after 2 hrs by cell-based monochlorobimane fluorometric method. Type of series: ADME. Set-up: scale not given: the % may be the effect or the level left.
Conditions: not given
Turning to `C=C1CC[C@@H]2[C@](C)(CO)[C@H](O)CC[C@@]2(C)[C@@H]1C/C=C1/C=COC1=O`, the Activity is over 70%.
Turning to `C=C1CC[C@@H]2[C@](C)(CO)[C@H](O)CC[C@@]2(C)[C@@H]1C/C=C1\C=COC1=O`, the Activity is on record as over 70%.

A further series concerns RAW-Blue. Description: Inhibition of LPS-induced NF-kappaB activity in mouse RAW-Blue cells assessed as reduction in SEAP reporter activity at 5 to 20 uM preincubated for 1 hr followed by LPS stimulation and measured after 8 to 24 hrs by SEAP reporter gene assay. Type of series: cell-based. The following applies: dose 5-20 µM, time 25.0 hrs. On the technique in general: A reporter such as luciferase makes a cellular process visible.
Consider `C=C1CC[C@@H]2[C@](C)(CO)[C@H](O)CC[C@@]2(C)[C@@H]1C/C=C1\C(=O)OC[C@H]1O`, for which the inhibition result was “inactive”.

A further series has as its system RAW264.7. Nature of the series: Antiinflammatory activity in mouse RAW264.7 cells assessed as inhibition of LPS-induced IL6 release at 5 to 10 uM preincubated for 1 hr followed by LPS stimulation and measured after 24 hrs by ELISA. The following applies: dose 5-10 µM, time 25.0 hrs. Type of series: functional, cell-based.
Regarding `C=C1CC[C@@H]2[C@](C)(CO)[C@H](O)CC[C@@]2(C)[C@@H]1C/C=C1\C(=O)Nc2ccc(F)cc21`, the inhibition entry was “inactive”.
Turning to `C=C1CC[C@@H]2[C@](C)(CO)[C@H](O)CC[C@@]2(C)[C@@H]1C/C=C1/C=COC1=O`, the inhibition result is “Active”.
On the same count and under the same terms, the same measure for `C=C1CC[C@@H]2[C@](C)(CO)[C@H](O)CC[C@@]2(C)[C@@H]1C/C=C1/CCOC1=O`: “inactive”.
In the case of `C=C1CC[C@@H]2[C@](C)(CO)[C@H](O)CC[C@@]2(C)[C@@H]1C/C=C1/C(=O)Nc2ccc(F)cc21`, the inhibition entry is “inactive”.
The same measure, in the same setting: for `C=C1CC[C@@H]2[C@](C)(CO)[C@H](O)CC[C@@]2(C)[C@@H]1C/C=C1/C(=O)Nc2ccccc21` the value was “inactive”; for `C=C1CC[C@@H]2[C@](C)(CO)[C@H](O)CC[C@@]2(C)[C@@H]1/C=C/C1=CCOC1=O`, “inactive”; for `C=C1CC[C@@H]2[C@](C)(CO)[C@H](O)CC[C@@]2(C)[C@@H]1C/C=C1\NC(=O)NC1=O`, “inactive”.
Still for that read-out and setting: the same measure for `C=C1CC[C@@H]2[C@](C)(CO)[C@H](O)CC[C@@]2(C)[C@@H]1C/C=C1\C(=O)Nc2ccccc21`: “inactive”.
Same read-out and setting: the same measure for `C=C1CC[C@@H]2[C@](C)(CO)[C@H](O)CC[C@@]2(C)[C@@H]1CC=O`: “inactive”.
As to `C=C1CC[C@@H]2[C@](C)(CO)[C@H](O)CC[C@@]2(C)[C@@H]1C/C=C1\C=COC1=O`, the inhibition result is “Active”.

System in the next series: not listed separately
Nature of the series: GSH reactivity in PBS assessed as GSH adduct formation by measuring half life by HPLC-MS analysis. The format is ADME.
Conditions: not given
In the case of `C=C1CC[C@@H]2[C@](C)(CO)[C@H](O)CC[C@@]2(C)[C@@H]1C/C=C1\C=COC1=O`, the t1/2 worked out at 3 min.

The subject of the next series is RAW-Blue. Nature of the series: Inhibition of LPS-induced NF-kappaB activity in mouse RAW-Blue cells assessed as reduction in SEAP reporter activity at 5 to 20 uM preincubated for 1 hr followed by LPS stimulation and measured after 24 hrs by SEAP reporter gene assay. The format is cell-based. The following applies: dose 5-20 µM, time 25.0 hrs.
As for `C=C1CC[C@@H]2[C@](C)(CO)[C@H](O)CC[C@@]2(C)[C@@H]1C/C=C1/C=COC1=O`, the inhibition result was “inactive”.
For the compound `C=C1CC[C@@H]2[C@](C)(CO)[C@H](O)CC[C@@]2(C)[C@@H]1C/C=C1\C=COC1=O`, the inhibition result is “inactive”.

The test system of another series is RAW-Blue. Nature of the series: Inhibition of LPS-induced NF-kappaB activity in mouse RAW-Blue cells assessed as reduction in SEAP reporter activity at 5 to 20 uM preincubated for 1 hr followed by LPS stimulation and measured after 8 hrs by SEAP reporter gene assay. Type of series: cell-based. The following applies: dose 5-20 µM, time 9.0 hrs.
With `C=C1CC[C@@H]2[C@](C)(CO)[C@H](O)CC[C@@]2(C)[C@@H]1C/C=C1/C=COC1=O`, the inhibition result is “Active”.
Still for that read-out and setting: for `C=C1CC[C@@H]2[C@](C)(CO)[C@H](O)CC[C@@]2(C)[C@@H]1C/C=C1\C=COC1=O` the value was “Active”.

The next series concerns RAW264.7. Description: Cytotoxicity against mouse RAW264.7 cells assessed as reduction cell viability at 5 to 50 uM measured after 24 hrs by Celltiter-glo assay. Type of series: cell-based. The following applies: raw264.7, 24 h, dose 5-50 µM.
With `C=C1CC[C@@H]2[C@](C)(CO)[C@H](O)CC[C@@]2(C)[C@@H]1C/C=C1\NC(=O)NC1=O`, the Activity entry was “Non-Toxic”.

In another series the test system is RAW-Blue. Description: Activation of NF-kappaB activity in mouse RAW-Blue cells assessed as increase in SEAP reporter activity at 30 uM measured after 24 hrs in presence of p38 inhibitor SB203580 by SEAP reporter gene assay. Type of series: cell-based.
Conditions: not given
As for `C=C1CC[C@@H]2[C@](C)(CO)[C@H](O)CC[C@@]2(C)[C@@H]1C/C=C1\C=COC1=O`, the outcome was inactive.

In another series the test system is RAW-Blue. Nature of the series: Activation of NF-kappaB activity in mouse RAW-Blue cells assessed as increase in SEAP reporter activity at 5 to 20 uM measured after 24 hrs by SEAP reporter gene assay. The format is cell-based. The following applies: filed as activator, dose 5-20 µM.
On to `C=C1CC[C@@H]2[C@](C)(CO)[C@H](O)CC[C@@]2(C)[C@@H]1C/C=C1\C=COC1=O`, for which the outcome was Active.

Another series deals with RAW264.7. Description: Antiinflammatory activity in mouse RAW264.7 cells assessed as inhibition of LPS-induced TNFalpha release at 5 to 10 uM preincubated for 1 hr followed by LPS stimulation and measured after 4 hrs by ELISA. The format is functional, cell-based. The following applies: dose 5-10 µM, time 5.0 hrs. For orientation: ELISA stands for enzyme-linked immunosorbent assay.
Take `C=C1CC[C@@H]2[C@](C)(CO)[C@H](O)CC[C@@]2(C)[C@@H]1C/C=C1/C=COC1=O`: the inhibition result was “Active”.
On the same count and under the same terms, for `C=C1CC[C@@H]2[C@](C)(CO)[C@H](O)CC[C@@]2(C)[C@@H]1C/C=C1/C(=O)Nc2ccccc21` the value was “inactive”; for `C=C1CC[C@@H]2[C@](C)(CO)[C@H](O)CC[C@@]2(C)[C@@H]1/C=C/C1=CCOC1=O`, “inactive”; for `C=C1CC[C@@H]2[C@](C)(CO)[C@H](O)CC[C@@]2(C)[C@@H]1C/C=C1\C(=O)OC[C@H]1O`, “inactive”.
The same measure, in the same setting: the same measure for `C=C1CC[C@@H]2[C@](C)(CO)[C@H](O)CC[C@@]2(C)[C@@H]1CC=O`: “inactive”.
Still for that read-out and setting: the same measure for `C=C1CC[C@@H]2[C@](C)(CO)[C@H](O)CC[C@@]2(C)[C@@H]1C/C=C1\C=COC1=O`: “Active”.
